Counter-ions that a name gives are not always drawn.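 How tested: cells in 96-well plates exposed to compound for 48 hours at five concentrations. The concentration for 50% growth inhibition is given as GI50.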 Active and inactive are the calls of the source. Cut-off read from the data, not from the text of the source: active = GI50 up to about 1.1 µM and inactive = higher.

Consider 16 molecules from ChEMBL document CHEMBL1201862, “PubChem BioAssay data set” (2004).

Holding throughout (assay): inhibition of tumour cell growth, NCI panel, 48 h
Assay [1] has as its system A498.
The subject of assay [2] is ACHN.
The test system of assay [3] is COLO 205.
In assay [4] the test system is EKVX.
The subject of assay [5] is HCT-116.
Assay [6] deals with HOP-92.
Assay [7] concerns KM12.
Assay [8] deals with NCI-H23.
The subject of assay [9] is OVCAR-4.
For assay [10], the system named is SF-295.
In assay [11] the test system is SK-MEL-2.
For assay [12], the system named is SK-MEL-5.
Assay [13] deals with SN12C.

As to `O=C(Nc1ccccc1[N+](=O)[O-])/C(=N/Nc1cccc(Cl)c1)c1c(O)c2ccccc2oc1=O`, the GI50 in assay [1] is > 100 µM (inactive); in [2], > 100 µM (inactive); in assay [3], 17.7 µM (inactive); in assay [4], > 100 µM (inactive); in assay [5], 22.9 µM (inactive); in assay [6] it was 23.6 µM (inactive). Further, the GI50 in assay [7] is > 100 µM (inactive); in assay [8], 24.9 µM (inactive); in assay [9], > 100 µM (inactive); in [10] it was > 100 µM (inactive); in [11], > 100 µM (inactive); in assay [12] it was 49.4 µM (inactive).
With `O=c1[nH]c(=O)n(C2CC(O)C(CO)O2)cc1C(F)(C(F)(F)F)C(F)(F)F` (stereo unspecified), the GI50 in [1] is > 100 µM (inactive); in assay [2], > 100 µM (inactive); in assay [3] it was 71 µM (inactive); in [4], > 100 µM (inactive); in assay [6] it was > 100 µM (inactive); in [7], > 100 µM (inactive). The GI50 in assay [8], in assay [9], in assay [10], in [11], in [12] and in assay [13] was > 100 µM (inactive) throughout.
Regarding `CCCCN(CC)C(=O)C(=O)Cc1nc2ccc(C(=O)c3ccccc3)cc2nc1O`, the GI50 in assay [1] is > 100 µM (inactive); in [2] it was 41 µM (inactive); in assay [3] it was > 76.2 µM (inactive); in assay [4], > 63.2 µM (inactive); in assay [5] it was > 100 µM (inactive); in assay [6], 53 µM (inactive). Further, the GI50 in assay [7] is > 100 µM (inactive); in assay [8], 57.9 µM (inactive); in [9], > 100 µM (inactive); in assay [10] it was 59 µM (inactive); in [12] it was 50.1 µM (inactive); in assay [13], > 86.1 µM (inactive).
On to `COC(=O)OCC1OC(N2C(=O)NC(=O)C(I)C2N=[N+]=[N-])CC1OC(=O)OC` (stereo unspecified), for which the GI50 in [2], in assay [3], in [5], in assay [6], in assay [7] and in assay [8] was > 100 µM (inactive) in each case. Further, the GI50 in assay [9], in [10], in assay [12] and in assay [13] was > 100 µM (inactive) throughout.
On to `CN(C)c1ccc(/C=c2\sc3nnc(-c4ccco4)n3c2=O)cc1`, for which the GI50 in [1], in [3], in [4], in assay [5], in assay [6] and in assay [7] was > 100 µM (inactive) each time. Also, the GI50 in [8], in assay [9], in assay [10], in [11], in assay [12] and in [13] was > 100 µM (inactive) throughout.
For `O=C1CSc2ccncc2N1`, the GI50 in assay [1], in [2], in assay [3], in [4], in [5] and in assay [8] was > 100 µM (inactive) throughout. Moreover, the GI50 in [9], in assay [10], in [11], in assay [12] and in assay [13] was > 100 µM (inactive) in each case.
Consider `Cn1c(=O)c2[nH]cnc2n(CC(=O)O)c1=O`, for which the GI50 in assay [1], in assay [2], in assay [3], in assay [4], in assay [5] and in [6] was > 100 µM (inactive) each time. The GI50 in assay [7], in [8], in assay [11], in assay [12] and in assay [13] was > 100 µM (inactive) in each case.
Take `Nc1nc(NCCO)c(N=O)c(=O)[nH]1`: the GI50 in assay [1], in assay [2], in assay [3], in assay [4], in assay [5] and in assay [6] was > 100 µM (inactive) each time. Moreover, the GI50 in assay [7], in [9], in assay [10], in [11], in [12] and in [13] was > 100 µM (inactive) throughout.
Regarding `CC(C)(C)c1cc(C(O)(C(F)(F)F)C(F)(F)F)c2c(c1)C(C(F)(F)F)(C(F)(F)F)OC(C(C)(C)C)N2` (stereo unspecified), the GI50 is 2.72 µM (inactive) in [2]; 3.3 µM (inactive) in assay [3]; 4.22 µM (inactive) in [4]; 1.96 µM (inactive) in [5]; < 0.01 µM (active) in assay [6]; 3.65 µM (inactive) in assay [7]. Besides, the GI50 in assay [8] is 2.64 µM (inactive); in [9], 6.28 µM (inactive); in [10], 2.63 µM (inactive); in assay [11], 2.55 µM (inactive); in assay [12], 1.57 µM (inactive); in [13], 3.3 µM (inactive).
Take `CCOC(=O)C12CCCC1(O)N(NC(=O)c1ccccc1)C(C)=C2C(=O)OC` (stereo unspecified): the GI50 in assay [1], in assay [2], in assay [3], in [4], in assay [5] and in assay [6] was > 100 µM (inactive) throughout. The GI50 in assay [7], in assay [8], in assay [9], in [10], in [11] and in assay [13] was > 100 µM (inactive) throughout.
For the molecule `COC(=O)C(=O)C(C(=O)C=C(C)C)C(=O)C(=O)Nc1ccc(C)cc1C` (stereo unspecified), the GI50 in [1], in assay [2], in assay [3], in [4], in assay [5] and in assay [7] was > 100 µM (inactive) throughout. Moreover, the GI50 in [8], in assay [9], in [10], in [11], in assay [12] and in assay [13] was > 100 µM (inactive) each time.
For the molecule `COC(=O)/C=C(\C(=O)OC)c1c2c3c(cc(OC)c(OC)c3c3ccccc13)CCN2C`, the GI50 was 40.6 µM (inactive) in assay [2]; 14.7 µM (inactive) in assay [3]; 64.6 µM (inactive) in assay [4]; 37.4 µM (inactive) in assay [5]; 44.9 µM (inactive) in [6]; 36.1 µM (inactive) in assay [7]. Besides, the GI50 in assay [8] was 42.2 µM (inactive); in assay [10] it was 78.9 µM (inactive); in assay [11], 35.4 µM (inactive); in [12], 13.8 µM (inactive); in [13], 58.6 µM (inactive).
Consider `CC1CC[P+](c2ccccc2)(c2ccccc2)CC1`, for which the GI50 is > 100 µM (inactive) in [1]; > 100 µM (inactive) in assay [2]; 18.7 µM (inactive) in assay [3]; 68.7 µM (inactive) in assay [4]; > 100 µM (inactive) in assay [5]; 92.5 µM (inactive) in [7]. Further, the GI50 in assay [8] was 72.6 µM (inactive); in [10], > 100 µM (inactive); in assay [11] it was 77.3 µM (inactive); in assay [12], 20.8 µM (inactive); in assay [13], > 100 µM (inactive).
In the case of `CC/C(=N\NS(=O)(=O)c1ccccc1)c1ccccc1`, the GI50 in assay [1], in [2], in assay [3], in [4], in [5] and in assay [6] was > 100 µM (inactive) in each case. The GI50 in assay [7], in assay [8], in [9], in [10], in assay [11] and in [12] was > 100 µM (inactive) in each case. Also, the GI50 in assay [13] was > 100 µM (inactive).
`COc1ccc2[nH]c3c(cnn4cnnc34)c2c1`: the GI50 in assay [2] is > 100 µM (inactive); in assay [3], > 100 µM (inactive); in [4] it was 23.3 µM (inactive); in [6] it was > 100 µM (inactive); in [7], > 100 µM (inactive); in [8] it was > 100 µM (inactive). Moreover, the GI50 in assay [9] is > 100 µM (inactive); in assay [10], > 100 µM (inactive); in assay [11], > 100 µM (inactive); in assay [12], 0.262 µM (active); in [13], > 100 µM (inactive).
As for `COC(=O)C1=CO[C@@H](C)[C@@H]2Cn3ccc4c5ccccc5nc-4c3C[C@H]12` [ALSTONINE HYDROCHLORIDE], the GI50 is > 100 µM (inactive) in assay [1]; > 100 µM (inactive) in assay [2]; > 100 µM (inactive) in assay [3]; > 100 µM (inactive) in assay [4]; > 100 µM (inactive) in [5]; 92.9 µM (inactive) in [6]. Further, the GI50 in assay [8] is > 100 µM (inactive); in assay [9] it was > 100 µM (inactive); in assay [10], > 100 µM (inactive); in assay [11] it was > 100 µM (inactive); in assay [12] it was 61.2 µM (inactive); in assay [13], > 100 µM (inactive).
